pIC50: −log10 of the molar value.
Tests used:
[1] = tested on: Hepatitis B virus; assay: Hepatitis B Virus Activity (method of Jansen et al. 1993); type: cell-based; conditions: n=2, read-out: IC50 against Hepatitis B virus
Protocol: (§1) The activity of compounds against Hepatitis B Virus was assessed as described in Jansen, R. et al., Antimicrobial Agents and Chemotherapy, Vol. 37, No. 3, pp. 441-447, 1993.

[2] = Cytotoxicity (reported with the Hepatitis B virus activity test); type: cell-based
Protocol: as §1

`Nc1ncnc2c1ncn2[C@@H]1C=C[C@H](CO)C1` [(+)-(1R,4S)-4-(6-Amino-9H-purin-9-yl)-2-cyclopentene-1-methanol] gave a melting point of 195 to 200 °C, a pIC50 [1] of 6.00 and a Cytotoxicity [2] of over 200 µM.

— patent US6630477B1, “Therapeutic nucleoside compound” (SmithKline Beecham Corporation, priority 1999, dated 2003)
